# Data reported in patent US7514245B2, “Method for producing chiral α-hydroxycarboxylic acids by enzymatic hydrolysis of chiral cyanohydrins” (DSM Fine Chemicals Austria NFG GmbH & Co. KG, priority 2003, dated 2009).
# Biological target: T1, Rhodococcus erythropolis NCIMB 11540 amidase (Rhodococcus erythropolis, UniProt P22984)
# T1 construct: made in house; host or cells: E. coli B BL21 (plasmid pMS470-33/3/1/11), crude lysate
# T1 sequence (P22984 1-521): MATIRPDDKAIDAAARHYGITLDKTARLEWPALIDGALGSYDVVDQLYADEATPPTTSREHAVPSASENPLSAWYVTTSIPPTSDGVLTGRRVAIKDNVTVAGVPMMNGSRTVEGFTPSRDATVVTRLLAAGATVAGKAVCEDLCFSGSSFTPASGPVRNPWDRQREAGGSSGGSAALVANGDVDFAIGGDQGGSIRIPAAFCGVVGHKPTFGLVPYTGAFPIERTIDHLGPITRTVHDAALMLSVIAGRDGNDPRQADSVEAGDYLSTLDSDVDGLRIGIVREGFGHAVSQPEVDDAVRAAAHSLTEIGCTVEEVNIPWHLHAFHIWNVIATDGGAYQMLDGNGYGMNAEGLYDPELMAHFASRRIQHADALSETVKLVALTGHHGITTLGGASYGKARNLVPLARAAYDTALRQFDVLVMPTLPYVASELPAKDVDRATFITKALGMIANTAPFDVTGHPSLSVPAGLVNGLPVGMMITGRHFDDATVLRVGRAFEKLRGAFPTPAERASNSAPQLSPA
# Test: Determination of amidase activity of crude lysates with acetamide
# Type: biochemical
# Conditions: pMS470-33/3/1/11 lysate; acetamide (40 mM) in PBS buffer at 37° C.; indophenolblue method
# Experimental: The E. coli B BL21 cells transformed by pMS470-33/3/1/11 were isolated on LB-ampicillin plates and an ONC of 100 ml of LB-ampicillin medium was inoculated with an individual colony. On the next morning a main culture consisting of 250 ml of SOC-ampicillin medium was inoculated into a 1000 ml chicane flask to an OD600 of 0.01 to 0.03 (Beckmann Photometer). […] After reaching the induction density (OD600=1 Beckmann Photometer), the cultures were induced by adding IPTG to a concentration of 0.3 mM. After an induction time of 16 h, the cells were harvested (centrifugation 3000·g, 10 min) and washed with sodium phosphate buffer (0.1 M, pH=7). The pellet produced was resuspended to approximately 5 ml total volume in wash buffer and disintegrated using an ultrasound probe (BRANSON Sonifier 250, 60% power setting, constant sonication; 5 times 30 s each with 1 min pause for cooling) with constant cooling to completeness (visual control of completeness under the microscope). […]
# […] The resultant blue coloration, after dilution of all samples and standards 1:10) with water, was quantified in the spectrophotometer (Perkin Elmer UV/VIS Spectrometer Lambda Bio) at 640 nm. By correlating the increase in blue coloration over time with the extinction values of the standards, the activity (μmol of released ammonium per minute) could be back-calculated.
compound,measurement,value
CC(N)=O [acetamide],activity of crude lysates,approximately 75 U/ml
